Results as given in ChEMBL document CHEMBL3507680, “University of Dundee, Gates Library screen for HepG2 cell viability”.

Assay: Human HepG2 cell viability assay in 384 well format
Assay type: toxicity, cell-based
Design: dose 125 nL, time 70.5 hour; cytotoxicity at 70.5 h: concentration not given beside the values
Details: HepG2 cells, read-out: Inhibition

CS(=O)(=O)N1CCO[C@@H]2CN(C(=O)COC3CCCC3)C[C@@H]2C1
cytotoxicity at 70.5 h: 7.96%

O=C(c1ccco1)N1CCc2onc(CN3CCCC3)c2C1
cytotoxicity at 70.5 h: 7.25%

CC(=O)N1CCCC2(CCN(Cc3ccc(Cl)c(F)c3)C2)C1 (stereo unspecified)
cytotoxicity at 70.5 h: -3.79%

COCCNC(=O)c1nc2c(s1)CCCN2Cc1ccccc1
cytotoxicity at 70.5 h: -6.6%

COc1cc(N2CC[C@@H]3O[C@@H](c4ccncn4)C[C@H]3C2)ncn1
cytotoxicity at 70.5 h: 7.96%

COc1cc(N2CC[C@@H]3O[C@@H](c4ccnc(C)n4)C[C@H]3C2)ncn1
cytotoxicity at 70.5 h: -4.55%

CN(C)C(=O)NCc1ncn2c1CN(S(C)(=O)=O)CCC2
cytotoxicity at 70.5 h: -4.56%

CCOCC1c2c(ncn2C(C)C)CCN1C(=O)C1CC1 (stereo unspecified)
cytotoxicity at 70.5 h: -3.05%

CCS(=O)(=O)N1CCC2(CN(C(=O)c3cn(C)cn3)C2)C1
cytotoxicity at 70.5 h: 8.36%

Cc1ccc(C(=O)N2C[C@@H]3CN(c4ncccn4)C[C@@H]3C2)cn1
cytotoxicity at 70.5 h: -9.68%

CCCS(=O)(=O)N1CCOC2(CCCN(c3ncc(F)cn3)C2)C1 (stereo unspecified)
cytotoxicity at 70.5 h: -13.3%

CCCS(=O)(=O)N1CCC2(CCCN(c3ncc(F)cn3)C2)C1 (stereo unspecified)
cytotoxicity at 70.5 h: -6.01%

c1coc(CN2CCc3onc(Cn4ccnc4)c3C2)c1
cytotoxicity at 70.5 h: -2.36%

Cc1nc(N2CCCC2)nc2c1CN(C(=O)c1ccco1)CC2
cytotoxicity at 70.5 h: -4.28%

Fc1cccc(N2CCc3ncnc(C4CC4)c3CC2)c1
cytotoxicity at 70.5 h: -4.85%

Fc1cccc(N2CCc3ncnc(N4CCOCC4)c3CC2)c1
cytotoxicity at 70.5 h: -6.22%

CN(C)c1ncnc2c1CCN(c1cccc(F)c1)CC2
cytotoxicity at 70.5 h: -3.26%

O=C(O)c1nnn(Cc2ccc(F)cc2)c1-c1cccnc1
cytotoxicity at 70.5 h: -10.1%

Cc1ccc(Cl)cc1NC(=O)Cn1cc(C(=O)O)ccc1=O
cytotoxicity at 70.5 h: 4.77%

Cc1c(Cl)cccc1NC(=O)Cn1cc(C(=O)O)ccc1=O
cytotoxicity at 70.5 h: -10.5%

COc1cc(C2C3=C(COC3=O)Nc3[nH]nc(C)c32)cc(Br)c1O (stereo unspecified)
cytotoxicity at 70.5 h: 2.06%

O=c1c2cnc(N3CCOCC3)nc2ccn1-c1ccccc1
cytotoxicity at 70.5 h: -7.35%

COc1cc(C2C3=C(COC3=O)Nc3[nH]nc(C)c32)cc2c1OCO2 (stereo unspecified)
cytotoxicity at 70.5 h: 9.37%

COc1ccc(C2SCC(=O)Nc3ccsc32)cc1OC (stereo unspecified)
cytotoxicity at 70.5 h: -11.5%

COc1cc(CC(O)CC#N)c(OC)c2c1OCO2 (stereo unspecified)
cytotoxicity at 70.5 h: -9.38%

CC(C)c1cc2c(O)nc(CSCC(=O)NCc3ccccn3)nc2s1
cytotoxicity at 70.5 h: -5.56%

O=C(NC1CC1)c1cc2c(nc1O)CC(c1cccs1)CC2=O (stereo unspecified)
cytotoxicity at 70.5 h: -11.9%

CCOC(=O)N1CCN(c2nc(N3CCCC3)c3ccccc3n2)CC1
cytotoxicity at 70.5 h: -6.36%

COc1cccc(-n2ccc3nc(N4CCCC4)ncc3c2=O)c1
cytotoxicity at 70.5 h: -4.05%

Cc1ccc(-n2ccc3nc(N4CCCC4)ncc3c2=O)cc1C
cytotoxicity at 70.5 h: 9.54%

CC(C)CCN1N=C(C(=O)N2CCCCCC2)S(=O)(=O)c2ccccc21
cytotoxicity at 70.5 h: 21.7%

CSc1nc2cc(C)n(CC(=O)Nc3nccs3)c2c(=O)n1CC(C)C
cytotoxicity at 70.5 h: -6.26%

COCCNC(=O)Cn1c(C)cc2nc(SC)n(CC(C)C)c(=O)c21
cytotoxicity at 70.5 h: 2.11%

CCOC(=O)CSc1ccc(-c2nc(CC)no2)cn1
cytotoxicity at 70.5 h: -2.21%

O=c1[nH]c2nc(NCC3CCCO3)ncc2c(=O)n1-c1cccc(F)c1 (stereo unspecified)
cytotoxicity at 70.5 h: 4.03%

O=c1[nH]c2nc(NC3CC3)ncc2c(=O)n1-c1ccc(F)cc1
cytotoxicity at 70.5 h: 0.679%

O=c1[nH]nc2nc(N3CCCC3)ccn12
cytotoxicity at 70.5 h: 5.61%

COc1cc(Cl)c(C)cc1-n1nnc(C(=O)O)c1C
cytotoxicity at 70.5 h: -2%

COc1ccccc1OCC(=O)n1nc(C)c(C)c1C
cytotoxicity at 70.5 h: 6.31%

O=C1COc2ccc(S(=O)(=O)N3CCOCC3)c3c2N1CCC3
cytotoxicity at 70.5 h: 35.1%

O=C(O)c1ccc2c(CN3CCCC3)c[nH]c2c1
cytotoxicity at 70.5 h: 5.69%

O=C(O)c1ccc2c(CN3CCOCC3)c[nH]c2c1
cytotoxicity at 70.5 h: 32.5%

CC(C)n1[nH]c(=O)c2c1NC(=O)CSC2C1CCCCC1 (stereo unspecified)
cytotoxicity at 70.5 h: 9.25%

COC(=O)C(CCSC)NC(=O)Cc1c(C)nn(-c2ccccc2)c1C (stereo unspecified)
cytotoxicity at 70.5 h: 1.93%

Cc1sc(CN)nc1-c1ccc(Cl)cc1Cl
cytotoxicity at 70.5 h: 5.42%

CC(=O)Nc1nc(-c2ccc(F)cc2)c[nH]1
cytotoxicity at 70.5 h: 36.5%

CC(=O)Nc1ncc(-c2ccc(C)cc2)[nH]1
cytotoxicity at 70.5 h: 4.65%

Oc1nnc(-c2cccs2)c2sc(N3CCCC3)nc12
cytotoxicity at 70.5 h: -6.61%

O=c1[nH]c2nc(N3CCCCCC3)ncc2c(=O)n1-c1cccc(F)c1
cytotoxicity at 70.5 h: -0.0138%

NC(=O)C1CCN(c2nc3nccc(-c4ccncc4)c3c(=O)[nH]2)CC1
cytotoxicity at 70.5 h: -1.26%

COc1cc(C2SCC(=O)Nc3n[nH]cc32)cc(OC)c1O (stereo unspecified)
cytotoxicity at 70.5 h: -19.7%

CC(C)CCNC(=O)c1c(-n2cnnn2)sc2c1CCCC2
cytotoxicity at 70.5 h: -0.216%

O=C(Nc1cccnc1)c1nn(C2CCS(=O)(=O)C2)c2c1CCCC2 (stereo unspecified)
cytotoxicity at 70.5 h: -23.7%

CNc1nc2c(s1)C(c1cc(Cl)ccc1F)CC(=O)N2 (stereo unspecified)
cytotoxicity at 70.5 h: 57.6%

O=C(Nc1ccccc1F)c1nn(C2CCS(=O)(=O)C2)c2c1CCCC2 (stereo unspecified)
cytotoxicity at 70.5 h: -7.2%

O=C(c1ccc(Cl)cc1-n1cnnn1)N1CCC2(CC1)OCCO2
cytotoxicity at 70.5 h: -0.151%

COc1cc(C2SCC(=O)Nc3[nH]ncc32)cc(OC)c1OC (stereo unspecified)
cytotoxicity at 70.5 h: -5.35%

O=C1CC(c2ccccc2C(F)(F)F)c2sc(N3CCOCC3)nc2N1 (stereo unspecified)
cytotoxicity at 70.5 h: -13.5%

CN(C)C(=O)N1CCC2(CC1)CNc1ccc(F)cc12
cytotoxicity at 70.5 h: -2.37%

O=C(C1CC1)N1CCC2(CC1)CNc1ccc(F)cc12
cytotoxicity at 70.5 h: -10.9%

CCOC(=O)N1CCN(c2nc(N)c3ccccc3n2)CC1
cytotoxicity at 70.5 h: -7.74%

CCCNCc1ccc(OCc2ccc3c(c2)OCCO3)cc1
cytotoxicity at 70.5 h: 33.3%

Cc1cc(NCCO)nc(N2CCC(Cc3ccccc3)CC2)c1C#N
cytotoxicity at 70.5 h: 0.669%

c1cnc(N2CCOCC3(CN(Cc4cc[nH]n4)CCO3)C2)nc1 (stereo unspecified)
cytotoxicity at 70.5 h: 7.31%

CCC1=N[C@@]2(CC[C@@H]3CN(Cc4ccccc4F)C[C@@H]32)C(=O)N1
cytotoxicity at 70.5 h: -6.13%

CC(C)NC1CCc2c(ccc(=O)n2CCN2CCCC2=O)C1 (stereo unspecified)
cytotoxicity at 70.5 h: -4.58%

O=C(CO)N1CCC(F)(F)C2(CCN(c3ccccc3)C2)C1 (stereo unspecified)
cytotoxicity at 70.5 h: 1.4%

CN1C[C@@H]2CN(C(=O)NCc3cccc(F)c3)CCC[C@]2(C(=O)O)C1
cytotoxicity at 70.5 h: 8.66%

Cc1cnc(N2C[C@H]3CCN(CC4CC4)C[C@H]3C2)nc1
cytotoxicity at 70.5 h: 9.39%

Cn1cnc2c1C(C(=O)N1CCCC1)N(CC1CC1)CC2 (stereo unspecified)
cytotoxicity at 70.5 h: -9.9%

CC(=O)N1CCc2ncn(C)c2C1C(=O)N1CCCC1 (stereo unspecified)
cytotoxicity at 70.5 h: -6.96%

CC(C)n1cnc2c1C(C(=O)N1CCCC1)N(CC1CC1)CC2 (stereo unspecified)
cytotoxicity at 70.5 h: -1.74%

COCCC(=O)N1CCN(CC(C)C)c2nc(C)ccc2C1
cytotoxicity at 70.5 h: -4%

c1ccn(Cc2noc3c2CN(Cc2ccsc2)CC3)c1
cytotoxicity at 70.5 h: -6.24%

c1coc(CN2CCc3onc(Cn4cccc4)c3C2)c1
cytotoxicity at 70.5 h: -6.52%

O=C(O)CN1CCC(F)(F)C2(CCN(c3ccccc3)C2)C1 (stereo unspecified)
cytotoxicity at 70.5 h: -5.61%

CCOCC1c2c(ncn2C(C)C)CCN1C(C)C (stereo unspecified)
cytotoxicity at 70.5 h: -7.26%

CC(=O)N1CCn2c(-c3ccccc3)cnc2C12CCNCC2
cytotoxicity at 70.5 h: -6.82%

Cc1ccc2c(n1)N(CC(C)C)CCN(C(=O)Cc1ccccn1)C2
cytotoxicity at 70.5 h: -4.9%

CN(C)C[C@@H]1C[C@@H]2CN(c3ncc(F)cn3)CC[C@@H]2N1C
cytotoxicity at 70.5 h: -3.26%

Cc1cccc(CN2C[C@@H]3CN(Cc4ccoc4)CCO[C@@H]3C2)n1
cytotoxicity at 70.5 h: -1.63%
